Legend:
[1] = test system: humans; test: administration to humans, tolerability; parameters: species or system human; conditions: in vivo
[2] = in vivo; conditions: mouse, iv
[3] = in vivo; conditions: dog, iv
[4] = accepted value; cited from earlier work
[5] = test system: diabetic retinopathy; conditions: humans, mainly in the 1980s; cited from earlier work

## O=S(=O)([O-])CCSSCCS(=O)(=O)[O-].[Na+].[Na+]
[1]
  dose administered with no adverse effects: exceeding 15 g/m^2
[2]
  NOAEL: > 3750 mg/kg
[3]
  NOAEL: > 3750 mg/kg

## [Cl-].[Na+] [common table salt]
[4]
  oral LD50: 3750 mg/kg

## O=C1NC(=O)[C@@]2(CCOc3ccc(F)cc32)N1 [sorbinil]
[5]
  efficacy in slowing progress of diabetic retinopathy and other diabetic complications: some efficacy
  toxicity / tolerability in patients: highly toxic

Reference: patent publication US6274622A, “Method of treating diabetic ophthalmopathy” (priority 1999, dated 2001)
